We go through 9 compounds from PMC6572376, “N1-Propargylguanosine Modified mRNA Cap Analogs: Synthesis, Reactivity, and Applications to the Study of Cap-Binding Proteins” (Molecules, 2019).

The target of series [1] is murine eIF4E (Mus musculus, UniProt P63073). As to the kind of experiment: Pyrene fluorescence intensity competition binding assay for eIF4E. An excerpt:
The prime role of the mRNA cap is to participate in initiation of translation through binding with eIF4E. Therefore, we investigated how the substitution at the N1 position influences the interaction between the cap analogs and eIF4E. To this end, we performed binding competition experiments with a Py-labeled m^7GTP analog as previously described. Thence, we determined IC50 values and calculated binding constants values (KD) for the cap analog-eIF4E complexes (Table 1, Figure 2). […] Additionally, the differences identified among studied compounds derived from triphosphate chain modifications were in agreement with previously published results.
A previously described pyrene fluorescence intensity binding method was used to determine the dissociation constants of the nonfluorescent ligands binding to the eIF4E protein in a competitive binding experiment. The experiments were performed in 96-well, black, non-binding assay plates with point fluorescence measurements (λexc = 345 nm; λem = 378 nm). Each well contained a buffer (50 mM Hepes/KOH pH = 7.2 containing 100 mM KCl and 0.5 mM EDTA), 10 nM of pyrene-labeled 7-methylguanosine pentaphosphate probe, ligand 1–5 or m^7Gp3G (half-log dilutions of Clig from 100 μM to 0.003 μM), and 75 nM of eIF4E protein. The reagents and added protein were pre-incubated for 15 min at 30 °C and stirred at 300 rpm. Measurements were performed in three different temperatures: At 20, 30, and 37 °C. A previously derived Equation (1) was used to calculate the inhibition (dissociation) constant KI of a competitive ligand according to the dependence of the recorded fluorescence intensity on the inhibitor concentration. (1) KI=IC50−[Pt]+[PL]50(KD/[L]50+1)/[L]50/KD+[P]0/KD+1 where IC50 is the inhibitor concentration required to replace 50% of the fluorescent probe from the protein binding site, [Pt] is the total protein concentration, [PL]50 is the protein–probe complex concentration at 50% inhibition, [L]50 is the free probe concentration at 50% inhibition, and [P]0 is the free protein concentration without inhibition.
In order to determine IC50 value, we used Origin® 2017 (OriginLab Corp., Northampton, MA, USA) software to fit the curve described by the derived Equation (2) to the measured fluorescence intensity values for various inhibitor concentrations. (2) F=F0Fmax−F0/1+10^(log(IC50)−log(Clig.))p where Clig. is the concentration of non-fluorescent ligand.
Figure 2 Dose–response curves for compounds 1–5 and m^7Gp3G plotted from a competition binding assay for meIF4E [16]. eIF4E (75 nM) and a pyrene-labeled fluorescent probe (10 nM) were incubated at 30 °C with the indicated concentrations of the investigated compounds (1–5 or m^7Gp3G as a reference).

Series [2] addresses T1, human decapping scavenger enzyme (hDcpS) (Homo sapiens, UniProt Q96C86).
T1 sequence (Q96C86 1-337): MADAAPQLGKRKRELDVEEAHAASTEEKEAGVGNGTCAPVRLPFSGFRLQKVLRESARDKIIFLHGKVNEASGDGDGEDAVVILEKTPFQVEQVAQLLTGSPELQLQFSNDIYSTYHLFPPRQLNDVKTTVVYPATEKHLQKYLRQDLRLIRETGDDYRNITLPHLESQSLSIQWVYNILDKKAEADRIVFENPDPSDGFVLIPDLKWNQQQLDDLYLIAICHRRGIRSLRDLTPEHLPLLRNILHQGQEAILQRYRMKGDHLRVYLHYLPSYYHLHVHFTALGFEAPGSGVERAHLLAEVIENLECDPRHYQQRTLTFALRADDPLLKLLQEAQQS
As to the kind of experiment: in vitro. To be noted: pH 7.6.
Procedure: (§2) Susceptibility of the new cap analogs to hydrolysis by human decapping scavenger enzyme (hDcpS) was investigated to assess the influence of N1 substitution on cap analogs recognition by DcpS. Caps 1–5 or m^7Gp3G (30 µM each) were incubated with hDcpS (30 nM) at 30 °C. Then, reaction samples were thermally deactivated and analyzed by RP-HPLC.
(§3) Enzymatic reactions with human DcpS were carried out in 50 mM Tris/HCl, 200 mM KCl, 0.5 mM EDTA, pH = 7.6 buffer at 30 °C for 30 nM hDcpS and 30 µM of a cap analog studied. As a control, m^7Gp3G was used. Cap analogs concentration was determined spectrophotometrically (absorption coefficient used in calculations is equal to 22,600 mL/mmol/cm in 0.1 M phosphate buffer pH = 7.0). For 1 and m^7Gp3G, 3 independent experiments were performed. Aliquots were terminated by heat inactivation for 3 min at 95 °C. Samples were analyzed with RP-HPLC using method E.
(§4) Data are average of triplicate experiments ± SD.

In series [3] the target is T1, human decapping scavenger enzyme (hDcpS). As to the kind of experiment: Susceptibility to hDcpS hydrolysis monitored by RP-HPLC. The note with it: 30 µM cap analog, 30 nM hDcpS, 30 °C.
Procedure: as §2, §3, §4
For series [4], the target named is murine eIF4E (meIF4E) (Mus musculus, UniProt P63073). As to the kind of experiment: Microscale thermophoresis direct binding to meIF4E. To be noted: MST, 25 nM probe, 25 °C, 1:1 binding model, triplicate. As for the experimental part: To this end, fluorescent probes (25 nM) were mixed with increasing concentrations of meIF4E and microscale thermophoresis was measured for each sample (Figure S5). Baseline corrected normalized fluorescences (ΔFn) determined from the MST traces were plotted as a function of protein concentration. KD values could then be calculated from the resulting binding curves (Figure 5). […] These findings align with those determined for the parent compounds 1, 2, and 3 (Table 1).
murine eIF4E (meIF4E), sequence (P63073 whole entry): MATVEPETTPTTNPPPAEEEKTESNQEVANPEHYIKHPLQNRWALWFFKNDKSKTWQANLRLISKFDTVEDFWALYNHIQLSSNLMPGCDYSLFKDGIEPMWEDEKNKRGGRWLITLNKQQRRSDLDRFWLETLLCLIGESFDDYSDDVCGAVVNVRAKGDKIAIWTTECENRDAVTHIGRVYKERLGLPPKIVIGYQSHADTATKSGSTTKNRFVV
Probes 6, 11, and 12 were dissolved in MST buffer (50 mM HEPES/KOH, 100 mM KCl, 0.5 mM EDTA, pH = 7.2, 0.2% Tween 20) to obtain a 50 nM stock solution. Murine eIF4E (meIF4E) was dissolved in MST buffer in a 16 point, 1:1 dilution series in a 10.0 µM to 0.30 nM concentration range. Equal volumes (10 µL) of meIF4E and probe were combined to obtain the following assay concentrations: 25 nM probe and 5.0 µM to 0.15 nM meIF4E for the assay.
(§1) For both assays, samples were loaded into standard Monolith™ NT.115 Series Capillares (NanoTemper Technologies, Cambridge, MA, USA). MST measurements were performed on Monolith NT.115 instrument (NanoTemper Technologies, Cambridge, MA, USA) at 25 °C. Measurements parameters were set as follows: 40% LED Blue power, Medium MST power. Data were obtained for three independently pipetted measurements and analyzed in PALMIST v. 1.4.4 [36] using a 1:1 binding model to calculate KD, using the signal from an MST-on time of 20 s (for eIF4E assay: Cold region start, −3 s; hot region start, 0.5 s; for DcpS assay: Cold region start, −3 s; hot region start 19 s), confidence intervals were calculated with error surface projection (ESP) method. Plots presented were generated using GUSSI v. 1.4.2 [37].
Figure 5 Direct binding microscale thermophoresis (MST) experiments with eIF4E and DcpS. (a) MST binding curves for probes 6, 11, 12, and meIF4E. Probe 6, 11, or 12 (50 nM) was mixed with a half-log dilution series of an meIF4E solution (10 µM–0.30 nM). (b) MST binding curves for probes 11 and 12 and DcpS. […] Data were analyzed in Palmist v. […]

The target in series [5] is T2, human DcpS (hDcpS) (Homo sapiens, UniProt Q96C86).
T2 construct: made in house
T2 sequence (Q96C86 1-337): T1 sequence (Q96C86 1-337)
As to the kind of experiment: Microscale thermophoresis direct binding to hDcpS. The note with it: for Kd: MST, 25 nM probe, 25 °C, 1:1 binding model, triplicate. As for the experimental part:
With these promising results in mind, we decided to use the same approach for studying DcpS enzyme. For this purpose, cleavage-resistant probes 11 and 12 were used. Both probes were high-affinity ligands for DcpS. […] This is in agreement with previously reported data on the influence of triphosphate chain modifications on cap-DcpS interaction.
Probes 11 and 12 were dissolved in MST buffer (50 mM HEPES/KOH, 100 mM KCl, 0.5 mM EDTA, pH = 7.2, 0.2% Tween 20) to obtain a 50 nM stock solution. In study of a probe 11, human DcpS (hDcpS) was dissolved in MST buffer in a 16 point 1:1 dilution series in a 2.0 µM to 0.061 nM concentration range. Equal volumes (10 µL) of hDcpS and the probe were mixed together to obtain the following assay concentrations: 25 nM probe and 1.0 µM to 0.030 nM hDcpS. In study of a probe 12, hDcpS was dissolved in MST buffer in a 16 point 2:1 dilution series in a 700 nM to 1.60 nM concentration range. Equal volumes (10 µL) of hDcpS and the probe were mixed together to obtain the following assay concentrations: 25 nM probe and 350 nM to 0.80 nM hDcpS.
as §1
Figure 5 Direct binding microscale thermophoresis (MST) experiments with eIF4E and DcpS. (a) MST binding curves for probes 6, 11, 12, and meIF4E. […] Data were analyzed in Palmist v. […]

[6] abbreviates: 30 °C, 75 nM eIF4E, 10 nM pyrene-labeled probe, triplicate.
[7] abbreviates: 30 °C, calculated from IC50 values.

murine eIF4E, sequence (P63073 whole entry): as above

In the case of `C#CCn1c(N)nc2c(ncn2C2OC(COP(=O)(O)OP(=O)([O-])OP(=O)(O)OCC3OC(n4c[n+](C)c5c(O)nc(N)nc54)C(O)C3O)C(O)C2O)c1=O` (stereo not drawn) [Compound 1, P1-(N1-Propargylguanosin-5′-yl) P3-(N7-methylguanosin-5′-yl) triphosphate], the IC50 in series [1] (20 °C) turned out to be 2920 ± 190 nM; in series [1] (setting [6]), 3570 ± 250 nM; in series [1] (37 °C), 3680 ± 700 nM. Also, the Kd in series [1] (20 °C, calculated from IC50) is 268 ± 40 nM; in series [1] (setting [7]), 305 ± 45 nM; in series [1] (37 °C, calculated from IC50), 371 ± 82 nM. In series [2], the half-life at 30 µM was 15.8 min. Also, the “Susceptibility to hydrolysis by hDcpS” value in series [3] (RP-HPLC) is on record as “efficiently cleaved by DcpS but more slowly than m^7Gp3G”.
With `C#CCn1c(N)nc2c(ncn2C2OC(COP(=O)([O-])OP(=O)(O)CP(=O)(O)OCC3OC(n4c[n+](C)c5c(O)nc(N)nc54)C(O)C3O)C(O)C2O)c1=O` (stereo not drawn) [Compound 2, P1-(N7-Methylguanosin-5′-yl) P3-(N1-propargylguanosin-5′-yl) 1,2-methylenetriphosphate], the IC50 in series [1] (20 °C) turned out to be 6570 ± 490 nM; in series [1] (setting [6]) it was 6370 ± 730 nM; in series [1] (37 °C) it was 8200 ± 790 nM. For the same compound, the Kd in series [1] (20 °C, calculated from IC50) was 610 ± 94 nM; in series [1] (setting [7]), 548 ± 95 nM; in series [1] (37 °C, calculated from IC50), 836 ± 121 nM.
On to `C#CCn1c(N)nc2c(ncn2C2OC(COP(=O)([O-])OP(=O)(O)NP(=O)(O)OCC3OC(n4c[n+](C)c5c(O)nc(N)nc54)C(O)C3O)C(O)C2O)c1=O` (stereo not drawn) [Compound 3, P1-(N7-Methylguanosin-5′-yl) P3-(N1-propargylguanosin-5′-yl) 1,2-imidotriphosphate], for which the values for the IC50 in series [1] (20 °C), in series [1] (setting [6]) and in series [1] (37 °C) were 3060 ± 160 nM, 3480 ± 220 nM and 3750 ± 890 nM, respectively. The Kd in series [1] (20 °C, calculated from IC50) was 281 ± 41 nM; in series [1] (setting [7]), 297 ± 43 nM; in series [1] (37 °C, calculated from IC50), 379 ± 100 nM.
With `C#CCn1c(N)nc2c(ncn2C2OC(COP(=O)(O)CP(=O)(O)OP(=O)([O-])OCC3OC(n4c[n+](C)c5c(O)nc(N)nc54)C(O)C3O)C(O)C2O)c1=O` (stereo not drawn) [Compound 4, P1-(N7-Methylguanosin-5′-yl) P3-(N1-propargylguanosin-5′-yl) 2,3-methylenetriphosphate], the results for the IC50 in series [1] (20 °C), in series [1] (setting [6]) and in series [1] (37 °C) were 5510 ± 330 nM, 6040 ± 460 nM and 8100 ± 610 nM, respectively. The Kd in series [1] (20 °C, calculated from IC50) is 511 ± 75 nM; in series [1] (setting [7]), 520 ± 78 nM; in series [1] (37 °C, calculated from IC50), 826 ± 109 nM.
With `C#CCn1c(N)nc2c(ncn2C2OC(COP(=O)(O)NP(=O)(O)OP(=O)([O-])OCC3OC(n4c[n+](C)c5c(O)nc(N)nc54)C(O)C3O)C(O)C2O)c1=O` (stereo not drawn) [Compound 5, P1-(N7-Methylguanosin-5′-yl) P3-(N1-propargylguanosin-5′-yl) 2,3-imidotriphosphate], the IC50 came out at 1850 ± 150 nM in series [1] (20 °C), 2160 ± 200 nM in series [1] (setting [6]) and 3210 ± 330 nM in series [1] (37 °C). The Kd was 168 ± 26 nM in series [1] (20 °C, calculated from IC50); 182 ± 29 nM in series [1] (setting [7]); 324 ± 48 nM in series [1] (37 °C, calculated from IC50).
With `C[n+]1cn([C@@H]2O[C@H](COP(=O)(O)OP(=O)([O-])OP(=O)(O)OC[C@H]3O[C@@H](n4cnc5c(=O)n(Cc6cn(CCCNC(=O)c7ccc8c(c7)C(=O)OC87c8ccc(O)cc8Oc8cc(O)ccc87)nn6)c(N)nc54)[C@H](O)[C@@H]3O)[C@@H](O)[C@H]2O)c2nc(N)nc(O)c21` [Compound 6, m^7Gp3G-N1-5FAM], in series [4], the Kd was 50 nM.
For the compound `C[n+]1cn([C@@H]2O[C@H](COP(=O)(O)CP(=O)(O)OP(=O)([O-])OC[C@H]3O[C@@H](n4cnc5c(=O)n(Cc6cn(CCCNC(=O)c7ccc8c(c7)C(=O)OC87c8ccc(O)cc8Oc8cc(O)ccc87)nn6)c(N)nc54)[C@H](O)[C@@H]3O)[C@@H](O)[C@H]2O)c2nc(N)nc(O)c21` [Compound 11, m^7GpCH2ppG-N1-5FAM], the Kd in series [4] was determined as 201 nM; in series [5], 38 nM.
`C[n+]1cn([C@@H]2O[C@H](COP(=O)(O)NP(=O)(O)OP(=O)([O-])OC[C@H]3O[C@@H](n4cnc5c(=O)n(Cc6cn(CCCNC(=O)c7ccc8c(c7)C(=O)OC87c8ccc(O)cc8Oc8cc(O)ccc87)nn6)c(N)nc54)[C@H](O)[C@@H]3O)[C@@H](O)[C@H]2O)c2nc(N)nc(O)c21` [Compound 12, m^7GpNHppG-N1-5FAM]: the Kd was 53 nM in series [4] and 14 nM in series [5]. Besides, the “Fold greater affinity for DcpS than probe 11” value in series [5] (MST KD ratio) came out at 2.5 fold.
Regarding `Cn1c[n+]([C@@H]2O[C@H](COP(=O)(O)OP(=O)(O)OP(=O)(O)OC[C@H]3O[C@@H](n4cnc5c(=O)[nH]c(N)nc54)[C@H](O)[C@@H]3O)[C@@H](O)[C@H]2O)c2nc(N)[nH]c(=O)c21` [m^7Gp3G, reference compound], the IC50 amounted to 3040 ± 260 nM in series [1] (20 °C), 3460 ± 300 nM in series [1] (setting [6]) and 3310 ± 870 nM in series [1] (37 °C). The Kd is 279 ± 45 nM in series [1] (20 °C, calculated from IC50); 294 ± 46 nM in series [1] (setting [7]); 334 ± 96 nM in series [1] (37 °C, calculated from IC50). Further, the Half-life in series [3] was found to be 5.703 min.
